Results as given in patent publication US20100298141A1, “SUBSTITUTED PYRIDINE N-OXIDE HERBICIDES” (E. I. DU PONT DE NEMOURS AND COMPANY, priority 2007, published 2010).

Legend:
rice = test: Test C flooded paddy test; assay type: in vivo, Oryza sativa; conditions: Flood
Procedure, shortened: (§1)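 Compound was added to standing water 3 cm above soil, flood maintained, and plants held in a greenhouse before visual scoring against controls at 13 to 15 days.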

corn = test: Test A pre-/postemergence greenhouse test; assay type: in vivo, Zea mays; conditions: for Corn plant response rating: 0 to 100 scale
Procedure, shortened: (§2)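 Untreated controls served as the reference for visual injury ratings taken about ten days after spraying. The non-phytotoxic solvent/surfactant formulation was applied preemergence to seeded loam and sand and postemergence to plants two to ten cm high.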

[1] = test system: common (oilseed) sunflower; test: Test C pre-/postemergence test; assay type: in vivo, Helianthus annuus; conditions: Preemergence
Procedure, shortened: (§3)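 Test chemicals were formulated with surfactant in a non-phytotoxic solvent and sprayed both on freshly planted seeds (preemergence) and on 1- to 4-leaf plants of 2–18 cm (postemergence). Flooded-paddy pots received compound directly into 3 cm of standing water, maintained for the test.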

bermudagrass = test: Test C pre-/postemergence test; assay type: in vivo, Cynodon dactylon
Procedure, shortened: as §3

umbrella sedge = test: Test C flooded paddy test; assay type: in vivo, Cyperus difformis; conditions: Flood
Procedure, shortened: as §1

lambsquarters = test: Test C pre-/postemergence test; assay type: in vivo, Chenopodium album; conditions: Preemergence
Procedure, shortened: as §3

pigweed = test: Test C pre-/postemergence test; assay type: in vivo, Amaranthus retroflexus; conditions: Preemergence
Procedure, shortened: as §3

barnyardgrass = test: Test A pre-/postemergence greenhouse test; assay type: in vivo, Echinochloa crus-galli; conditions: for Barnyardgrass plant response rating: 0 to 100 scale
Procedure, shortened: as §2

wheat [2] = test: Test A pre-/postemergence greenhouse test; assay type: in vivo, Triticum aestivum; conditions: for Wheat plant response rating: 0 to 100 scale
Procedure, shortened: as §2

Surinam grass = test: Test C pre-/postemergence test; assay type: in vivo, Brachiaria decumbens; conditions: Preemergence
Procedure, shortened: as §3

wheat [3] = test: Test C pre-/postemergence test; assay type: in vivo, Triticum aestivum; conditions: Preemergence
Procedure, shortened: as §3

Goosegrass = test: Test C pre-/postemergence test; assay type: in vivo, Eleusin indica; conditions: Preemergence
Procedure, shortened: as §3

giant foxtail = test: Test A pre-/postemergence greenhouse test; assay type: in vivo, Setaria faberi; conditions: for Foxtail, Giant plant response rating: 0 to 100 scale
Procedure, shortened: as §2

crabgrass = test: Test C pre-/postemergence test; assay type: in vivo, Digitaria sanguinalis; conditions: Preemergence
Procedure, shortened: as §3

eastern black nightshade = test: Test C pre-/postemergence test; assay type: in vivo, Solanum ptycanthum; conditions: Preemergence
Procedure, shortened: as §3

morningglory = test: Test A pre-/postemergence greenhouse test; assay type: in vivo, Ipomoea spp.; conditions: for Morningglory plant response rating: 0 to 100 scale
Procedure, shortened: as §2

redroot pigweed = test: Test A pre-/postemergence greenhouse test; assay type: in vivo, Amaranthus retroflexus; conditions: for Pigweed plant response rating: 0 to 100 scale
Procedure, shortened: as §2

[4] = 31 g ai/ha, scale 0 to 100 (0 no effect, 100 complete control)
[5] = 62 g ai/ha, scale 0 to 100, 0 no effect, 100 complete control, 13 to 15 days
[6] = 125 g ai/ha, scale 0 to 100, 0 no effect, 100 complete control, 13 to 15 days
[7] = Postemergence, 125 g ai/ha, 0 is no effect, 100 is complete control
[8] = Postemergence, 500 g ai/ha, 0 is no effect, 100 is complete control
[9] = Preemergence, 125 g ai/ha, 0 no effect, 100 complete control
[10] = Preemergence, 500 g ai/ha, 0 to 100 scale where 0 is no effect and 100 is complete control

Cn1nc(C(F)(F)F)c(CS(=O)(=O)c2ccc(Cl)c[n+]2[O-])c1Cl [Compound 18]
90: Plant response rating, Bermudagrass (bermudagrass; Preemergence, 31 g ai/ha, scale 0 to 100 (0 no effect, 100 complete control)) | Barnyardgrass plant response rating (barnyardgrass; [9]) | Plant response rating, Goosegrass (Goosegrass; [4]) | Foxtail, Giant plant response rating (giant foxtail; [9]) | Pigweed plant response rating (redroot pigweed; [9])
30: Plant response rating, Rice (rice; [4]) | Wheat plant response rating (wheat [2]; [8])
20: Plant response rating, Wheat (wheat [2]; [10]) | Morningglory plant response rating (morningglory; [8]) | Plant response rating, Morningglory (morningglory; [10])
80: Plant response rating, Rice (rice; [6]) | Plant response rating, Rice (rice; 250 g ai/ha, scale 0 to 100 (0 no effect, 100 complete control)) | Plant response rating, Sedge, Umbrella (umbrella sedge; [6]) | Barnyardgrass plant response rating (barnyardgrass; [8]) | Foxtail, Giant plant response rating (giant foxtail; [8]) | Plant response rating, Crabgrass, Large (crabgrass; [4])
100: Bermudagrass plant response rating (bermudagrass; 62 g ai/ha, Preemergence, scale 0 to 100 (0 no effect, 100 complete control)) | Plant response rating (0 to 100), Bermudagrass (bermudagrass; Preemergence, 250 g ai/ha) | Bermudagrass plant response rating (bermudagrass; preemergence, 125 g ai/ha, scale 0 (no effect) to 100 (complete control)) | Pigweed plant response rating (pigweed; 62 g ai/ha, scale 0 to 100) | Plant response rating, Pigweed (pigweed; [4]) | Plant response rating, Barnyardgrass (barnyardgrass; [10]) | Goosegrass plant response rating (Goosegrass; 62 g ai/ha, scale 0 to 100) | Plant response rating (0 to 100), Goosegrass (Goosegrass; 250 g ai/ha) | Plant response rating, Foxtail, Giant (giant foxtail; [10]) | Crabgrass, Large plant response rating (crabgrass; 62 g ai/ha, scale 0 to 100) | Plant response rating (0 to 100), Crabgrass, Large (crabgrass; 250 g ai/ha) | Plant response rating, Pigweed (redroot pigweed; [10])
50: Corn plant response rating (corn; [8])
0: Corn plant response rating (corn; [7]) | Corn plant response rating (corn; [9]) | Plant response rating, Corn (corn; [10]) | Sunflower plant response rating ([1]; 62 g ai/ha, scale 0 to 100) | Plant response rating, Sunflower [1, 4] | Plant response rating, Sedge, Umbrella (umbrella sedge; [4]) | Plant response rating, Sedge, Umbrella (umbrella sedge; [5]) | Lambsquarters plant response rating (lambsquarters; 62 g ai/ha, scale 0 to 100) | Plant response rating, Lambsquarters (lambsquarters; [4]) | Wheat plant response rating (wheat [2]; [7]) | Wheat plant response rating (wheat [2]; [9]) | Surinam Grass plant response rating (Surinam grass; 62 g ai/ha, scale 0 to 100) | Plant response rating, Surinam Grass (Surinam grass; [4]) | Wheat plant response rating (wheat [3]; 62 g ai/ha, scale 0 to 100) | Plant response rating, Wheat (wheat [3]; [4]) | Morningglory plant response rating (morningglory; [7]) | Morningglory plant response rating (morningglory; [9]) | Pigweed plant response rating (redroot pigweed; [7])
40: Plant response rating, Rice (rice; [5])
85: Plant response rating, Sedge, Umbrella (umbrella sedge; 250 g ai/ha, scale 0 to 100, 0 no effect, 100 complete control, 13 to 15 days)
60: Barnyardgrass plant response rating (barnyardgrass; [7]) | Foxtail, Giant plant response rating (giant foxtail; [7]) | Nightshade plant response rating (eastern black nightshade; 62 g ai/ha, scale 0 to 100) | Plant response rating, Nightshade (eastern black nightshade; [4]) | Pigweed plant response rating (redroot pigweed; [8])
